Measurements published in publication PMC12222954 (Nature Communications, 2025).

Columns and labels:
[1] = assay type: in vivo; conditions: SD rats; for effect on the intestinal absorption of capecitabine: COS 250 mg/kg
[2] = target: T1, P-gp (Homo sapiens, UniProt P08183); test: SPR affinity to P-gp in SMALP-MCF-7/ADR liposomes; assay type: binding
[3] = system: paraquat poisoning; assay type: in vivo, SD rats; conditions: for survival rate: PQ-intoxicated rats, oral 2 h post-intoxication, over 15 days
[4] = system: paraquat poisoning; test: Survival of paraquat-poisoned abcb1; assay type: in vivo; conditions: PQ-intoxicated abcb1(-/-) mice, 15 days
[5] = Intestinal transport rate, everted intestinal sac model; assay type: in vitro ADME, SD rats; conditions: pre-incubation 40 min
[6] = system: tight junctions between intestinal epithelial cells; test: TEM observation of tight junctions after oral GlcN; assay type: in vivo, SD rats; conditions: GlcN 250 mg/kg, 20 min
[7] = system: Caco-2 cells; test: Cell viability, Cell Counting Kit-8; assay type: cell-based; conditions: 48 h
[8] = target: T1, P-gp; test: Efflux of Rh123 from preloaded Caco-2 cells; assay type: cell-based; conditions: Rh123-preloaded Caco-2 cells, vs control
[9] = target: T1, P-gp; test: Cellular uptake of Rh123 in P-gp silenced; assay type: cell-based; conditions: P-gp knockdown Caco-2 cells, various concentrations
[10] = Pharmacokinetics of digoxin in wild-type FVB mice with or without GlcN; assay type: in vivo
[11] = Pharmacokinetics of digoxin in abcb1; assay type: in vivo; conditions: abcb1(-/-) mice
[12] = target: T1, P-gp; assay type: biochemical; conditions: GlcN 10 mM, 5 min pre-incubation
[13] = target: P-gp-mediated ATPase (Homo sapiens, UniProt P08183); test: P-gp-mediated ATPase activity in Caco-2 cells; assay type: cell-based; conditions: 10 μM GlcN
[14] = system: Caco-2 cells; assay type: cell-based
[15] = system: A549 cells; assay type: cell-based
[16] = target: T1, P-gp; test: Transport of paraquat in P-gp recombinant inside-out vesicle model; assay type: biochemical; conditions: P-gp inside-out vesicles
[17] = assay type: in vivo, SD rats; conditions: Sprague-Dawley, rat, oral
[18] = assay type: in vivo; conditions: FVB mice, GlcN 500 mg/kg
[19] = assay type: in vivo; conditions: abcb1(-/-) mice, GlcN 500 mg/kg
[20] = system: paraquat poisoning; test: Survival of paraquat-poisoned FVB mice; assay type: in vivo, wt FVB mice; conditions: PQ-intoxicated FVB mice
[21] = Molar osmotic pressure of solution after adding GlcN or Glu; assay type: physicochemical; conditions: GlcN concentrations below 20 mM
[22] = target: CYP3A4 (Homo sapiens, UniProt P08684); conditions: 30 min incubation, 100 μM GlcN
Sequence of CYP3A4 (P08684 whole entry): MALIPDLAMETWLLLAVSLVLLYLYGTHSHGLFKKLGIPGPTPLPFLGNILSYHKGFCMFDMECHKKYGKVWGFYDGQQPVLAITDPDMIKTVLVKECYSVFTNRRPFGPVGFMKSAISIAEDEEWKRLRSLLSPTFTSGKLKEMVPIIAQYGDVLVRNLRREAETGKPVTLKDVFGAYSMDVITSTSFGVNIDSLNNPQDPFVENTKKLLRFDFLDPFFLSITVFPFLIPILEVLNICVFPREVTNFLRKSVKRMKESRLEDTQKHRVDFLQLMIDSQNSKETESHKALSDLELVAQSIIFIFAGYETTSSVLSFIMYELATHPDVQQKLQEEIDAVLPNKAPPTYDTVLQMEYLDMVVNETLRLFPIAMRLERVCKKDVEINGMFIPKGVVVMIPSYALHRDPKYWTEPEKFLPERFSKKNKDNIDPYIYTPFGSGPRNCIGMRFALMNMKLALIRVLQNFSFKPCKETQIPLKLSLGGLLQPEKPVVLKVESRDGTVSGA

T1 sequence (P08183 whole entry): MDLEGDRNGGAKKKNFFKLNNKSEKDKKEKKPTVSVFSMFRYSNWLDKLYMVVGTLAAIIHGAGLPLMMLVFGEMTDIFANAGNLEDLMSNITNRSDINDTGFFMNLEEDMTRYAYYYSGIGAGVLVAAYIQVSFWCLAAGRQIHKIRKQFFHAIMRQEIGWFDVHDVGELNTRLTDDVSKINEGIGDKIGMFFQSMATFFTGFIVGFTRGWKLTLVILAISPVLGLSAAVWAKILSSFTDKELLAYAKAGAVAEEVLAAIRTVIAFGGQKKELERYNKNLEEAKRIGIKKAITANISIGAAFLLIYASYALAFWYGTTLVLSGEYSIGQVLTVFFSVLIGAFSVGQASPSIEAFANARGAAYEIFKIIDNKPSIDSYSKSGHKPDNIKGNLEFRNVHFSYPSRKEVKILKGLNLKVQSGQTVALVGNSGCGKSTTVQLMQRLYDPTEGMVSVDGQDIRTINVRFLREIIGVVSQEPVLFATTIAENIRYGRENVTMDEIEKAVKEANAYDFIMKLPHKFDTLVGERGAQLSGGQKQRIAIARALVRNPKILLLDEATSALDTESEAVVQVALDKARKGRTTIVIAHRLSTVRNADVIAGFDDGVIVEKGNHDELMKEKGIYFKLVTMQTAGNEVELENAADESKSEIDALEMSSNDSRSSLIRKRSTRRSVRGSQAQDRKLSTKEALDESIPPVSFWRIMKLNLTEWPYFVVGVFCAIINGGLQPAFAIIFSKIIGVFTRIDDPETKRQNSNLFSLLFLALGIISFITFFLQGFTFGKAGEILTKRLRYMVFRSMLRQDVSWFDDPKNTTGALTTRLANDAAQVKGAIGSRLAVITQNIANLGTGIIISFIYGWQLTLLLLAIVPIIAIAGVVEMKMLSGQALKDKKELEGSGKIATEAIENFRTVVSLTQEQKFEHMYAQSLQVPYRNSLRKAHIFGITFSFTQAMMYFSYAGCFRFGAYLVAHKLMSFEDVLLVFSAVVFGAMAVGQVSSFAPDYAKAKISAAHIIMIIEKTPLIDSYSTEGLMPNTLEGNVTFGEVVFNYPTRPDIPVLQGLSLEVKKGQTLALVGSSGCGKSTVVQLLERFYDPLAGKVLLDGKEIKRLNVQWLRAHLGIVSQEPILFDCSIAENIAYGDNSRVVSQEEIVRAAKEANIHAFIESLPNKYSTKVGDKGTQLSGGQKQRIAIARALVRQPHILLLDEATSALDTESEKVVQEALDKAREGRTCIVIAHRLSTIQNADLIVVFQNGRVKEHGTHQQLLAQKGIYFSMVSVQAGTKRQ
Sequence of P-gp-mediated ATPase (P08183 whole entry): as above

N[C@H]1[C@H](O[C@H]2[C@H](O)[C@@H](N)C(O)O[C@@H]2CO)O[C@H](CO)[C@@H](O)[C@@H]1O (some centres unmarked) [COS2, chitobiose]
effect on the intestinal absorption of capecitabine [1]: inhibited

N[C@H]1[C@H](O[C@H]2[C@H](O)[C@@H](N)[C@H](O[C@H]3[C@H](O)[C@@H](N)C(O)O[C@@H]3CO)O[C@@H]2CO)O[C@H](CO)[C@@H](O)[C@@H]1O (some centres unmarked) [COS3, chitotriose]
Kd [2]: 276 µM | AUC of capecitabine, of the control group [1]: 12.65% | effect on the intestinal absorption of capecitabine [1]: inhibited

N[C@H]1[C@H](O[C@H]2[C@H](O)[C@@H](N)[C@H](O[C@H]3[C@H](O)[C@@H](N)[C@H](O[C@H]4[C@H](O)[C@@H](N)[C@H](O[C@H]5[C@H](O)[C@@H](N)C(O)O[C@@H]5CO)O[C@@H]4CO)O[C@@H]3CO)O[C@@H]2CO)O[C@H](CO)[C@@H](O)[C@@H]1O (some centres unmarked) [COS5, chitopentaose]
effect on the intestinal absorption of capecitabine [1]: facilitated

C[C@@H]1C[C@H]2[C@@H]3CCC4=CC(=O)C=C[C@]4(C)[C@@]3(F)[C@@H](O)C[C@]2(C)[C@@]1(O)C(=O)CO [DEX, dexamethasone, reference compound]
survival rate [3]: 30% | effect on survival [4]: does not improve the survival rate within 15 days

N[C@H]1C(O)O[C@H](CO)[C@@H](O)[C@@H]1O (some centres unmarked) [GlcN, Glucosamine]
inhibitory effect on intestinal drug transport after prolonged pre-incubation [5]: reverses the inhibitory effect | tight junctions between intestinal epithelial cells before and after oral GlcN [6]: remained unchanged | concentrations that did not induce significant cytotoxicity [7]: below 50 mM | effect on fluorescence intensity of intracellular Rh123 / Rh123 transport [8]: notably reduced | effect on intracellular accumulation level of Rh123 [9]: hardly had any effect | effect on oral absorption of digoxin [10]: significantly inhibited | effect on in vivo pharmacokinetic behavior of digoxin [11]: does not affect | transport activity relative to the control group [12]: ~ 1.48 times | ATPase activity compared to baseline at peak effect [13]: doubled | effect on resistance to paraquat (cell viability) [14]: significantly enhanced the resistance | effect on resistance to paraquat (cell viability) [15]: significantly enhanced the resistance | effect on paraquat transport [16]: enhanced its transport | reduction of PQ peak plasma concentration and bioavailability [17]: ~ 60% | effect on PQ absorption [18]: significantly reduced | effect on PQ pharmacokinetics [19]: no substantial effect | survival rate [3]: 60% | effect on survival rate [20]: improves the survival rate | effect on survival [4]: fails to significantly rescue | ΔOsmolality [21]: below 20 mOsmol/kg | boost of CYP3A4 enzyme activity compared to the control group [22]: 301%

C[n+]1ccc(-c2cc[n+](C)cc2)cc1 [PQ, N,N’-dimethyl-4,4’-bipyridinium]
time within which all poisoned rats without administration died ([3]; paraquat 350 mg/kg oral, SD rats): ≤ 6 days

OC[C@H]1OC(O)[C@H](O)[C@@H](O)[C@@H]1O (some centres unmarked) [glucose, reference compound]
effect on fluorescence intensity of intracellular Rh123 / Rh123 transport [8]: no discernible effect
